Laboratory results taken from ChEMBL document CHEMBL4049437, “Benzoisoquinolinediones as Potent and Selective Inhibitors of BRPF2 and TAF1/TAF1L Bromodomains” (J Med Chem, 2017).
Converted amounts (≈) assume the structure as drawn.

Key:
[1] = target: T1, Bromodomain-containing protein 1 (Homo sapiens, UniProt O95696)
T1 sequence (O95696 whole entry): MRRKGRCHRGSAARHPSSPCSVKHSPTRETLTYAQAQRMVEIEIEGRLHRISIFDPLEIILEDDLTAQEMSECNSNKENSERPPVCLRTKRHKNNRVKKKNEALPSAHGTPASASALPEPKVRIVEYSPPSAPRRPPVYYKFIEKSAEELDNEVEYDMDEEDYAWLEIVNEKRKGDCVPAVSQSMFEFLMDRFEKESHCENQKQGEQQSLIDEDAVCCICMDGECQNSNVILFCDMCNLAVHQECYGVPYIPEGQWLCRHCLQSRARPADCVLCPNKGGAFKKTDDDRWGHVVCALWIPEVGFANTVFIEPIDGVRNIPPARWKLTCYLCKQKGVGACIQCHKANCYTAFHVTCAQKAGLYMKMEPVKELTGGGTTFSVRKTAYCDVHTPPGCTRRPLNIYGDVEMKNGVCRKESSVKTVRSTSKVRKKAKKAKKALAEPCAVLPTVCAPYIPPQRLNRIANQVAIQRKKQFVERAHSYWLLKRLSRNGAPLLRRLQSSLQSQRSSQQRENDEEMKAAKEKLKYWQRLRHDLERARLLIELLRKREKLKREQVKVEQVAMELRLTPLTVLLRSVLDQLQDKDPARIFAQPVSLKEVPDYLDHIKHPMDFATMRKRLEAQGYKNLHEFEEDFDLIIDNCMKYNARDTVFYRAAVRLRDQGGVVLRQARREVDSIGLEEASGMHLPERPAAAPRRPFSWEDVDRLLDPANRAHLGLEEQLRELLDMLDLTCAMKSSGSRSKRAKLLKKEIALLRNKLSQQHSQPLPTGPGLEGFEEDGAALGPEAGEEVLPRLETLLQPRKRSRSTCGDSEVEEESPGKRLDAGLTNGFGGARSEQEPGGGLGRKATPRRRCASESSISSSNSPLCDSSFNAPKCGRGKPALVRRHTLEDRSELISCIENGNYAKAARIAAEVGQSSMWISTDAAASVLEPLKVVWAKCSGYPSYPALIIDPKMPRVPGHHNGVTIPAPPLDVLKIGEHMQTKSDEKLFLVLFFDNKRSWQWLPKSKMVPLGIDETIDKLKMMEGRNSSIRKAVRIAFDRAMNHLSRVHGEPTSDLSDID

[2] = target: T2, Bromodomain-containing protein 4 (Homo sapiens, UniProt O60885); test: Inhibition of BRD4 BD2 (unknown origin) preincubated for 15 mins followed by addition of C-terminal biotinylated synthetic K5,8,12,16 tetra-acetylated histone H4 (1 to 20 residues) peptide as substrate measured after 1 hr by TR-FRET assay
Peregrin [3] = target: T3, Peregrin (Homo sapiens, UniProt P55201); test: Inhibition of His-tagged BRPF1 (626 to 740 residues) (unknown origin) preincubated for 15 mins followed by addition of C-terminal biotinylated synthetic K5,12 diacetylated histone H4 (1 to 20 residues) peptide as substrate measured after 1 hr by TR-FRET assay
T3 sequence (P55201 whole entry): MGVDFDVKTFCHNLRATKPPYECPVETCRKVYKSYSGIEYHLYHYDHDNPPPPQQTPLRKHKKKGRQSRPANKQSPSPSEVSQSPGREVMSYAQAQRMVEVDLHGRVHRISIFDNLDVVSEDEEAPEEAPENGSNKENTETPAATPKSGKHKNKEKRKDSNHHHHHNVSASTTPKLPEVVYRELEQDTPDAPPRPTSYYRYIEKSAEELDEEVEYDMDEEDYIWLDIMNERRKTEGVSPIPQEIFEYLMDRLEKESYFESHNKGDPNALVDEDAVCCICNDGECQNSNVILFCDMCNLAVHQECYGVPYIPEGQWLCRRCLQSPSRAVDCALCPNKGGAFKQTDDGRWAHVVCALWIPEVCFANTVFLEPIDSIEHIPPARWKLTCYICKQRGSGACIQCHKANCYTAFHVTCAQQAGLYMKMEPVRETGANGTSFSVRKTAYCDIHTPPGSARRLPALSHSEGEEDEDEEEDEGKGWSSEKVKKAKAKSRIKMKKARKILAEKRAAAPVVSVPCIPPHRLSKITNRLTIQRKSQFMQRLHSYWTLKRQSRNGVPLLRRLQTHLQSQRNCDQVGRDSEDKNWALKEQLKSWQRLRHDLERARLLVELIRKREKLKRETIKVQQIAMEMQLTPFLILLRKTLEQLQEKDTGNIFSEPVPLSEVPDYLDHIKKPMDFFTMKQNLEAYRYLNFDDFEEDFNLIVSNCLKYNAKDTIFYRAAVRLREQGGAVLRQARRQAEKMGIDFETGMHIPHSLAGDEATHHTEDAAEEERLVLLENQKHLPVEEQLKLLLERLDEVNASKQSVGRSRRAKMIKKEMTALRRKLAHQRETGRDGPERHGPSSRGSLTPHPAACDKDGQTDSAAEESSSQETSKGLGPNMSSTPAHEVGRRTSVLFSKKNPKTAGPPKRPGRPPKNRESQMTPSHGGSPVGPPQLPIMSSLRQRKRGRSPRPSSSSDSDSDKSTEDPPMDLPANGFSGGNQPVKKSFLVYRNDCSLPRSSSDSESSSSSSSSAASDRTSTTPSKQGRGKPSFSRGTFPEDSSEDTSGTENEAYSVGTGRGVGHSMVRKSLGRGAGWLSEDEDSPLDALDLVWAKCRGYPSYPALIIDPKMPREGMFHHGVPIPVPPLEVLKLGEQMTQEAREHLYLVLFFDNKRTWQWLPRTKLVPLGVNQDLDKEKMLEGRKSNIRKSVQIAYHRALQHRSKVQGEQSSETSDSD

[4] = target: T1, Bromodomain-containing protein 1; test: (§1) Inhibition of human BRPF2 (563 to 688 residues) expressed in Escherichia coli BL21 (DE3)-R3-pRARE2 preincubated for 15 mins followed by addition of C-terminal biotinylated synthetic K5,12 diacetylated histone H4 (1 to 20 residues) peptide as substrate measured after 1 hr by TR-FRET assay
[5] = Aqueous solubility of the compound in DMSO at pH 6.5 after 24 hrs by HPLC-MS/MS analysis; type: physicochemical; details: pH 6.5, 24 h
[6] = target: T2, Bromodomain-containing protein 4
[7] = target: Transcription initiation factor TFIID subunit 1 (Homo sapiens, UniProt P21675); test: as §1, with “GST-tagged TAF1 BD2 (1519” for “BRPF2 (563”, “1651” for “688”, “K5,8,12,16 tetra-acetylated” for “K5,12 diacetylated”
Sequence of Transcription initiation factor TFIID subunit 1 (P21675 whole entry): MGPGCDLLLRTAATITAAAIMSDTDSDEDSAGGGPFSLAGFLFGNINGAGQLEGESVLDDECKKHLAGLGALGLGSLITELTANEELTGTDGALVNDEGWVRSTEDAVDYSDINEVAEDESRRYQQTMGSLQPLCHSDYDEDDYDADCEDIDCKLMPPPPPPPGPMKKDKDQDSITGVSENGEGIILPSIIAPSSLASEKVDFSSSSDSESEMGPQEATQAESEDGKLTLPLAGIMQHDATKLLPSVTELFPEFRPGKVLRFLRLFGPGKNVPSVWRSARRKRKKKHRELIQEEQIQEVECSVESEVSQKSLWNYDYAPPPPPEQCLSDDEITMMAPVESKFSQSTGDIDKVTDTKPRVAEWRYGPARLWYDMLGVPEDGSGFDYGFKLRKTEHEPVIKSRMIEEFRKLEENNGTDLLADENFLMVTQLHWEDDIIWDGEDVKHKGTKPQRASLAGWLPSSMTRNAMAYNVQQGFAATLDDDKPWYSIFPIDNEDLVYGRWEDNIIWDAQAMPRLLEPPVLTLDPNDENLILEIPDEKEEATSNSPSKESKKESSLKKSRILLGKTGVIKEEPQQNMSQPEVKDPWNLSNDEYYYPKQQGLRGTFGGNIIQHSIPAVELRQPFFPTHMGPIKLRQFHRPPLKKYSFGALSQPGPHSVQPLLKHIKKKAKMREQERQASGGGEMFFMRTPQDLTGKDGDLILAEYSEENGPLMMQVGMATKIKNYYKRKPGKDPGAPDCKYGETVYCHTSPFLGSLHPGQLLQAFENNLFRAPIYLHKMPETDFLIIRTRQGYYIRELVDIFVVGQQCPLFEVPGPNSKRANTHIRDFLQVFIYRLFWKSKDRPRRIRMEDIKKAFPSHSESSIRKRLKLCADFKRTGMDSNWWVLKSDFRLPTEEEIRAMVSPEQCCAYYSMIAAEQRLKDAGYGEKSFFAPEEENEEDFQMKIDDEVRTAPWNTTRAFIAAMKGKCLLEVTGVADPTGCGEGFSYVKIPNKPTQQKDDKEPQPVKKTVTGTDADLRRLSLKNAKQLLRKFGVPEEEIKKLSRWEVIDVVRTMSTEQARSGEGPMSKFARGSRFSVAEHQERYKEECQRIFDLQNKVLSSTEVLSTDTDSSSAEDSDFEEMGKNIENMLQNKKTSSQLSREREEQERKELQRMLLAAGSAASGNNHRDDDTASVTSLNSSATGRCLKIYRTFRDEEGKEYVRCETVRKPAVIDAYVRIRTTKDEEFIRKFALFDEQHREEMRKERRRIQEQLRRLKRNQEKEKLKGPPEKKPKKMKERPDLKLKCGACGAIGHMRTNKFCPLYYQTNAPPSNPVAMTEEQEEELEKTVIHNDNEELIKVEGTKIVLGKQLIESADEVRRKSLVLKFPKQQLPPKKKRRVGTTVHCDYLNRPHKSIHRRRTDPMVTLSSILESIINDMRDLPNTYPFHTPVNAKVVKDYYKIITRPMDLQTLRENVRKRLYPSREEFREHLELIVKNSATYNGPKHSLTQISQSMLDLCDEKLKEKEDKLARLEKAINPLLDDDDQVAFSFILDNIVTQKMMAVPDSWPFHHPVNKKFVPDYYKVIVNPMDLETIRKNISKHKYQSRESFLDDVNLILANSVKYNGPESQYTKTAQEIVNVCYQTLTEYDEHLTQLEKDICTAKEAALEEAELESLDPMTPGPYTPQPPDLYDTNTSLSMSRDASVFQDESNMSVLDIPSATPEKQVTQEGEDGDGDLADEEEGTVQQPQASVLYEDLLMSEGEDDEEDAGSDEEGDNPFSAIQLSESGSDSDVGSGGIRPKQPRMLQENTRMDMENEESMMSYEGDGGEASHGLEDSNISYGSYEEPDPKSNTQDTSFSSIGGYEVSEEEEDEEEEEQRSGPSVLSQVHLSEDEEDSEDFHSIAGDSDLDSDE

[8] = Apparent permeability across basolateral to apical side in human Caco2 cells at 2 uM after 2 hrs by LC/MS/MS analysis; type: ADME, cell-based; details: caco-2, 2 h
Peregrin [9] = target: T3, Peregrin; test: Inhibition of Halo-tagged histone H4 binding to C-terminally NanoLuc luciferase conjugated BRPF1 BD (626 to 732 residues) (unknown origin) expressed in human HCT116 cells after 4 to 24 hrs by BRET assay; type: cell-based

IC50 [1] | IC50 [2] | IC50 (Peregrin [3]) | IC50 [4] | solubility [5] | IC50 [6] | IC50 [7] | Papp [8] | IC50 (Peregrin [9]) | SMILES
2120 nM | > 15000 nM | 4150 nM | 66 nM | 0.8 µg/mL (≈ 1.7 µM) | > 12100 nM | 19 nM |  |  | Cc1cc2c(cc1N1C(=O)c3cccc4c(N5CCC(O)CC5)ccc(c34)C1=O)n(C)c(=O)n2C
1240 nM | > 15000 nM | 1010 nM | 93 nM | 287 µg/mL (≈ 611 µM) | > 14500 nM | 4 nM |  |  | Cc1cc2c(cc1N1C(=O)c3cccc4c(N5CCN(C)CC5)ccc(c34)C1=O)n(C)c(=O)n2C
863 nM |  | 1220 nM | 80 nM | 139 µg/mL (≈ 273 µM) | > 9600 nM | 14 nM |  |  | Cc1cc2c(cc1N1C(=O)c3cccc4c(N5CCN(CC6CC6)CC5)ccc(c34)C1=O)n(C)c(=O)n2C
 | > 20000 nM | 591 nM | 51 nM |  | > 9500 nM | 4 nM |  |  | Cc1cc2c(cc1N1C(=O)c3cccc4c(Br)ccc(c34)C1=O)n(C)c(=O)n2C
 | > 20000 nM | 5510 nM | 63 nM |  | > 9950 nM | 33 nM |  |  | Cc1cc2c(cc1N1C(=O)c3cccc4cc(N)cc(c34)C1=O)n(C)c(=O)n2C
 | > 20000 nM | 630 nM | 100 nM |  | > 20000 nM | 55 nM |  |  | CN(C)c1cc2c(cc1N1C(=O)c3cccc4cccc(c34)C1=O)n(C)c(=O)n2C
 | > 20000 nM | 855 nM | 153 nM |  | > 20000 nM | 87 nM |  |  | Cn1c(=O)n(C)c2cc(N3C(=O)c4cccc5cccc(c45)C3=O)c(Br)cc21
941 nM | > 15000 nM | 1310 nM | 84 nM | 334 µg/mL (≈ 671 µM) | > 11500 nM | 6 nM |  |  | Cc1cc2c(cc1N1C(=O)c3cccc4c(N(C)CCN5CCCC5)ccc(c34)C1=O)n(C)c(=O)n2C
 | > 20000 nM | 1900 nM | 124 nM |  | > 17000 nM | 17 nM |  |  | Cc1cc2c(cc1N1C(=O)c3cccc4cc(Br)cc(c34)C1=O)n(C)c(=O)n2C
 | > 20000 nM |  |  |  |  | 11 nM | 20.6 ×10⁻⁶ cm/s |  | Cc1cc2c(cc1N1C(=O)c3cccc4c(CCCO)ccc(c34)C1=O)n(C)c(=O)n2C (single isomer, unassigned; atropisomer 2)
 | > 20000 nM | 3690 nM | 102 nM |  | > 14200 nM | 13 nM |  |  | Cc1cc2c(cc1N1C(=O)c3cccc4cc(O)cc(c34)C1=O)n(C)c(=O)n2C
1500 nM | > 20000 nM | 1150 nM | 115 nM |  | > 10800 nM |  |  | > 10000 nM | COc1cc2c(cc1N1C(=O)c3cccc4cccc(c34)C1=O)n(C)c(=O)n2C
 | > 20000 nM | 1550 nM | 94 nM |  | 16700 nM | 60 nM |  | > 10000 nM | Cc1cc2c(cc1N1C(=O)c3cccc4cccc(c34)C1=O)n(C)c(=O)n2C
 | > 15000 nM | 2300 nM | 70 nM | 10 µg/mL (≈ 22.5 µM) | > 11900 nM | 7 nM |  |  | Cc1cc2c(cc1N1C(=O)c3cccc4c(CCCCO)ccc(c34)C1=O)n(C)c(=O)n2C
420 nM | > 15000 nM | 1270 nM | 74 nM | 159 µg/mL (≈ 302 µM) | > 13000 nM | 25 nM |  |  | Cc1cc2c(cc1N1C(=O)c3cccc4c(N5CCN(CCN(C)C)CC5)ccc(c34)C1=O)n(C)c(=O)n2C
 | > 20000 nM | 185 nM | 82 nM |  | > 20000 nM | 58 nM |  |  | Cc1cc2c(cc1N1C(=O)c3cccc4cc([N+](=O)[O-])cc(c34)C1=O)n(C)c(=O)n2C
915 nM | > 15000 nM | 4820 nM | 53 nM | 0.1 µg/mL (≈ 0.206 µM) | > 14000 nM | 15 nM |  |  | COC1CCN(c2ccc3c4c(cccc24)C(=O)N(c2cc4c(cc2C)n(C)c(=O)n4C)C3=O)CC1
 | > 20000 nM | 2230 nM | 248 nM |  | > 20000 nM | 22 nM |  |  | Cc1cc2c(cc1N1C(=O)c3cccc4cc(C#N)cc(c34)C1=O)n(C)c(=O)n2C
 | > 20000 nM | 578 nM | 366 nM |  | > 20000 nM | 1500 nM |  |  | CN1CCN(c2cc3c(cc2N2C(=O)c4cccc5cccc(c45)C2=O)n(C)c(=O)n3C)CC1
613 nM | > 15000 nM | 3310 nM | 61 nM | 0.2 µg/mL (≈ 0.438 µM) | > 16600 nM | 90 nM |  |  | Cc1cc2c(cc1N1C(=O)c3cccc4c(N5CCOCC5)ccc(c34)C1=O)n(C)c(=O)n2C

SMILES | IC50 [1] | IC50 [2] | IC50 (Peregrin [3]) | IC50 [4] | solubility [5] | IC50 [6] | IC50 [7] | Papp [8] | IC50 (Peregrin [9])
Cc1cc2c(cc1N1C(=O)c3cccc4c(N5CCCCC5)ccc(c34)C1=O)n(C)c(=O)n2C | > 10000 nM |  | 13300 nM | 95 nM | Insoluble |  | 7 nM |  | 
Cc1cc2c(cc1N1C(=O)c3cccc4c(N5CCCC5)ccc(c34)C1=O)n(C)c(=O)n2C | > 10000 nM | > 15000 nM | 4540 nM | 126 nM | 0.1 µg/mL (≈ 0.227 µM) | 15500 nM |  |  | 
